Here are results for eleven compounds from ChEMBL document CHEMBL1201862, “PubChem BioAssay data set” (2004).

Some test systems named below: A549; NCI-H522; SW-620; T47D; MDA-MB-231; SF-295; A498; LOX IMVI; DU-145; K562; UACC-257; SF-268; SNB-75; MDA-MB-435; M14; SK-MEL-5; TK-10; HOP-62; RPMI-8226.
What all share (experiment): growth of human tumour cells (NCI), 48 h

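1) Cells in 96-well plates. 2) Compound, 48 h, 5 concentrations. 3) Linear interpolation between surrounding doses. 4) Unreached endpoint = highest concentration. GI50 marks 50% less growth.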 Calls of active or inactive are those of the source. Rule as the data show it: active = GI50 up to about 1.1 µM and inactive = higher.

For the compound `C=CCNc1ccc(C)cc1`, the GI50 with A549, in the assay with NCI-H522, in the assay on SW-620, in the assay with T47D, in the assay with MDA-MB-231 and in the assay with SF-295 was > 100 µM (inactive) in each case. The GI50 with A498 was 3.82 µM (inactive); in the assay with LOX IMVI, > 100 µM (inactive); with DU-145 it was > 100 µM (inactive); with K562, > 100 µM (inactive); in the assay with UACC-257 it was > 100 µM (inactive); in the assay on SF-268, > 100 µM (inactive). Also, the GI50 in the assay with SNB-75, in the assay with MDA-MB-435, with M14, with SK-MEL-5 and in the assay with TK-10 was > 100 µM (inactive) in each case.

Turning to `O=C(O)CCCCCNC(=O)CCC(CN(CC(=O)OCc1ccccc1)CC(=O)OCc1ccccc1)N(CC(=O)OCc1ccccc1)CC(=O)OCc1ccccc1` (stereo not given), the GI50 was 17.4 µM (inactive) in the assay on A549; 19.2 µM (inactive) in the assay with NCI-H522; 22.1 µM (inactive) in the assay on SW-620; 17.2 µM (inactive) with T47D; 19.5 µM (inactive) in the assay with MDA-MB-231; 17.3 µM (inactive) in the assay on SF-295. For the same compound, the GI50 is 20.1 µM (inactive) with HOP-62; 17.9 µM (inactive) in the assay on A498; 19.2 µM (inactive) in the assay with LOX IMVI; 19.5 µM (inactive) in the assay on DU-145; 12.5 µM (inactive) in the assay with K562; 18.8 µM (inactive) with UACC-257. Also, the GI50 was 10.3 µM (inactive) in the assay on RPMI-8226; 18.7 µM (inactive) in the assay with SF-268; 19.4 µM (inactive) in the assay on MDA-MB-435; 17.5 µM (inactive) with M14; 17.3 µM (inactive) in the assay with SK-MEL-5; 16.3 µM (inactive) in the assay with TK-10.

For `CCc1nnc(-n2c(C)nc3cc(Cl)ccc3c2=O)s1`, the GI50 in the assay with A549 is 31 µM (inactive); in the assay with NCI-H522, 20.5 µM (inactive); with SW-620, 34.8 µM (inactive); in the assay with T47D it was 27.9 µM (inactive); with MDA-MB-231, 83 µM (inactive); with SF-295, 21.4 µM (inactive). Besides, the GI50 in the assay on HOP-62 was 45.4 µM (inactive); in the assay on A498, 39.9 µM (inactive); in the assay with LOX IMVI it was 39.1 µM (inactive); in the assay on DU-145, 41.6 µM (inactive); in the assay on K562, 29 µM (inactive); in the assay with UACC-257, 39.4 µM (inactive). The GI50 was 37.8 µM (inactive) in the assay on SF-268; 34.9 µM (inactive) in the assay with SNB-75; 35 µM (inactive) with MDA-MB-435; 38.7 µM (inactive) with M14; 21.3 µM (inactive) in the assay with SK-MEL-5; 40.9 µM (inactive) with TK-10.

As to `N#Cc1ccccc1NC(=O)C(O)C(O)C(O)C(O)C=O` (stereo not given), the GI50 in the assay on A549, in the assay on NCI-H522, in the assay on SW-620, with T47D, in the assay with MDA-MB-231 and in the assay on SF-295 was > 100 µM (inactive) throughout. The GI50 in the assay on A498, in the assay with LOX IMVI, in the assay with DU-145, with K562, with UACC-257 and in the assay on SF-268 was > 100 µM (inactive) throughout. Moreover, the GI50 in the assay on SNB-75, with MDA-MB-435, in the assay with M14, in the assay on SK-MEL-5 and in the assay with TK-10 was > 100 µM (inactive) in each case.

Consider `CCOC(=O)C1(C(=O)OCC)COS(=O)OC1`, for which the GI50 is > 100 µM (inactive) in the assay on A549; 0.604 µM (active) in the assay with NCI-H522; 18.6 µM (inactive) in the assay on SW-620; 19.9 µM (inactive) in the assay on T47D; 16.9 µM (inactive) with MDA-MB-231; > 100 µM (inactive) in the assay on SF-295. The GI50 is > 100 µM (inactive) in the assay with A498; 13.2 µM (inactive) in the assay on LOX IMVI; > 100 µM (inactive) in the assay on DU-145; 21.4 µM (inactive) with K562; > 100 µM (inactive) with UACC-257; > 10 µM (inactive) in the assay on SF-268. Besides, the GI50 was 79.1 µM (inactive) in the assay on SNB-75; 36.7 µM (inactive) in the assay on MDA-MB-435; > 100 µM (inactive) in the assay with M14; 35.6 µM (inactive) in the assay on SK-MEL-5; > 100 µM (inactive) in the assay with TK-10.

`CSC(SC)=C1CC(=O)Nc2ccccc2C1=O`: the GI50 was > 100 µM (inactive) in the assay with A549; 57 µM (inactive) with NCI-H522; 29.9 µM (inactive) with T47D; > 100 µM (inactive) in the assay on MDA-MB-231; > 100 µM (inactive) with SF-295; > 100 µM (inactive) in the assay on HOP-62. Moreover, the GI50 in the assay with A498 was > 100 µM (inactive); in the assay on LOX IMVI it was 17.4 µM (inactive); in the assay with DU-145, 91.6 µM (inactive); in the assay on K562 it was 27.7 µM (inactive); in the assay on UACC-257, 23.6 µM (inactive); in the assay with SF-268 it was > 100 µM (inactive). The GI50 in the assay with MDA-MB-435 was 44.8 µM (inactive); in the assay with M14, 80.2 µM (inactive); with SK-MEL-5, 51.5 µM (inactive); in the assay on TK-10, 37 µM (inactive).

With `O=S1(=O)N=C(SCc2ccccc2)N(c2ccccc2)c2ccncc21`, the GI50 in the assay with A549 is 32.6 µM (inactive); in the assay on NCI-H522, 18.7 µM (inactive); in the assay on SW-620 it was 56 µM (inactive); in the assay with T47D it was 29.2 µM (inactive); in the assay with MDA-MB-231 it was 68.2 µM (inactive); with SF-295, 34 µM (inactive). For the same compound, the GI50 in the assay with HOP-62 is 31.3 µM (inactive); in the assay on A498, 17.1 µM (inactive); with LOX IMVI it was 53.7 µM (inactive); in the assay on DU-145, 30.5 µM (inactive); in the assay on K562, 29.9 µM (inactive); in the assay on UACC-257, 31.3 µM (inactive). Moreover, the GI50 was 36.6 µM (inactive) with SF-268; 24.7 µM (inactive) with SNB-75; 41.5 µM (inactive) in the assay with MDA-MB-435; 36.3 µM (inactive) in the assay with M14; 28.4 µM (inactive) with SK-MEL-5; 35.7 µM (inactive) in the assay on TK-10.

On to `CC(=O)CCC[C@H](C)[C@@H](O)[C@@H]1O[C@H]([C@@]2(C)CCC(=O)O2)C[C@H]1C(=O)O`, for which the GI50 with A549, in the assay with NCI-H522, in the assay with SW-620, with T47D, in the assay on MDA-MB-231 and with SF-295 was > 100 µM (inactive) in each case. The GI50 in the assay with HOP-62, with LOX IMVI, with DU-145, in the assay on K562, with UACC-257 and in the assay on RPMI-8226 was > 100 µM (inactive) throughout. In addition, the GI50 with SF-268, in the assay on SNB-75, in the assay on MDA-MB-435, in the assay on SK-MEL-5 and in the assay on TK-10 was > 100 µM (inactive) in each case.

Turning to `CCOC(=O)CC1CCN(C(=O)c2ccccc2)C2Cc3c([nH]c4ccccc34)C12C[N+](=O)[O-]` (stereo not given), the GI50 is > 100 µM (inactive) in the assay with NCI-H522; > 100 µM (inactive) in the assay on SW-620; 54.3 µM (inactive) with T47D; > 100 µM (inactive) in the assay with MDA-MB-231; 40.5 µM (inactive) in the assay with SF-295; 46.1 µM (inactive) with HOP-62. Further, the GI50 with A498 was > 100 µM (inactive); in the assay on LOX IMVI, > 100 µM (inactive); in the assay on DU-145, > 100 µM (inactive); with K562, 36.4 µM (inactive); in the assay on UACC-257, > 100 µM (inactive); in the assay with SF-268, > 100 µM (inactive). The GI50 in the assay with SNB-75 is 56.6 µM (inactive); with MDA-MB-435, 97.3 µM (inactive); with M14, 63.2 µM (inactive); in the assay on SK-MEL-5, 57.8 µM (inactive); in the assay with TK-10, > 100 µM (inactive).

Turning to `CC(C)c1cc2c(c(O)c1O)[C@@]1(C(=O)O)CCCC(C)(C)[C@@H]1CC2` [CARNOSIC ACID], the GI50 in the assay with A549 is 18.2 µM (inactive); in the assay with NCI-H522 it was 13 µM (inactive); in the assay on SW-620, 31.8 µM (inactive); in the assay with T47D, 18.4 µM (inactive); in the assay with MDA-MB-231 it was 31.8 µM (inactive); in the assay with SF-295, 22.4 µM (inactive). Moreover, the GI50 in the assay on HOP-62 is 27.2 µM (inactive); in the assay on LOX IMVI, 19.6 µM (inactive); in the assay on DU-145 it was 25.1 µM (inactive); in the assay with K562 it was 28.4 µM (inactive); with UACC-257, 14.6 µM (inactive); with RPMI-8226 it was 7.48 µM (inactive). Further, the GI50 was 18.8 µM (inactive) in the assay with SF-268; 17.8 µM (inactive) in the assay on SNB-75; 16.3 µM (inactive) with MDA-MB-435; 16.2 µM (inactive) in the assay with SK-MEL-5; 13.4 µM (inactive) in the assay with TK-10.

On to `O=C1CSSCC(=O)Nc2ccccc2N1`, for which the GI50 in the assay on A549, in the assay on NCI-H522, in the assay on SW-620, in the assay with T47D, in the assay with MDA-MB-231 and in the assay on SF-295 was > 100 µM (inactive) in each case. The GI50 in the assay on HOP-62, in the assay with A498, with LOX IMVI, in the assay with DU-145, in the assay on K562 and in the assay on UACC-257 was > 100 µM (inactive) each time. Besides, the GI50 in the assay with RPMI-8226, with SF-268, in the assay with MDA-MB-435, in the assay on M14, in the assay with SK-MEL-5 and in the assay on TK-10 was > 100 µM (inactive) throughout.
